Assay results taken from patent publication US11633481B2, “Surfactants for use in healthcare products” (priority 2019, dated 2023).

Legend:
Format in all cases: physicochemical
[1] = Solubility in water; settings: pure water, without hydrotropes or other surfactants
[2] = Critical micelle concentration and minimum surface tension by Wilhelmy plate method
Excerpt: These properties may be measured and described by various methods. One method by which surfactants may be described is by the molecule's critical micelle concentration (CMC). CMC may be defined as the concentration of a surfactant at which micelles form, and above which all additional surfactant is incorporated into micelles.
As surfactant concentration increases, surface tension decreases. Once the surface is completely overlaid with surfactant molecules, micelles begin to form. This point represents the CMC, as well as the minimum surface tension. Further addition of surfactant will not further affect the surface tension. CMC may therefore be measured by observing the change in surface tension as a function of surfactant concentration. One such method for measuring this value is the Wilhemy plate method. A Wilhelmy plate is usually a thin iridium-platinum plate attached to a balance by a wire and placed perpendicularly to the air-liquid interface. The balance is used to measure the force exerted on the plate by wetting. This value is then used to calculate the surface tension (γ) according to Equation 1: γ=F/I cos θ Equation 1: wherein I is equal to the wetted perimeter (2w+2d, in which w and d are the […], respectively) and cos θ, the contact angle between the liquid and the plate, is assumed to be 0 in the absence of an extant literature value.
(§1) Nuclear magnetic resonance (NMR) spectroscopy was performed on a Bruker 500 MHz spectrometer. The critical micelle concentration (CMC) was determined by the Wilhelmy plate method at 23° C. with a tensiometer (DCAT 11, DataPhysics Instruments GmbH) equipped with a Pt—Ir plate. Dynamic surface tension was determined with a bubble pressure tensiometer (Krüss BP100, Krüss GmbH), at 23° C. Contact angle was determined with the optical contact angle goniometer (OCA 15 Pro, DataPhysics GmbH) equipped with a digital camera.

[3] = Contact angle (wetting) with optical contact angle goniometer; settings: 10× CMC in water
Excerpt: Surface-active compounds may also be assessed by their wetting ability on solid substrates as measured by the contact angle. When a liquid droplet comes in contact with a solid surface in a third medium, such as air, a three-phase line forms among the liquid, the gas and the solid. The angle between the surface tension unit vector, acting at the three-phase line and tangent at the liquid droplet, and the surface is described as the contact angle. The contact angle (also known as wetting angle) is a measure of the wettability of a solid by a liquid. In the case of complete wetting, the liquid is completely spread over the solid and the contact angle is 0°. Wetting properties are typically measured for a given compound at the concentration of 1-100×CMC, however, it is not a property that is concentration-dependent therefore measurements of wetting properties can be measured at concentrations that are higher or lower.
In one method, an optical contact angle goniometer may be used to measure the contact angle. This device uses a digital camera and software to extract the contact angle by analyze the contour shape of a sessile droplet of liquid on a surface.
as §1

[4] = Dynamic surface tension with bubble pressure tensiometer; settings: 23° C.
Excerpt: Another parameter used to assess the performance of surfactants is dynamic surface tension. The dynamic surface tension is the value of the surface tension for a particular surface or interface age. In the case of liquids with added surfactants, this can differ from the equilibrium value. Immediately after a surface is produced, the surface tension is equal to that of the pure liquid. As described above, surfactants reduce surface tension; therefore, the surface tension drops until an equilibrium value is reached. The time required for equilibrium to be reached depends on the diffusion rate and the adsorption rate of the surfactant.
One method by which dynamic surface tension is measured relies upon a bubble pressure tensiometer. This device measures the maximum internal pressure of a gas bubble that is formed in a liquid by means of a capillary. The measured value corresponds to the surface tension at a certain surface age, the time from the start of the bubble formation to the occurrence of the pressure maximum. The dependence of surface tension on surface age can be measured by varying the speed at which bubbles are produced.
as §1

[5] = chloride counterion, pH=7, 23° C.
[6] = substrate Polyethylene terephthalate

| Structure (SMILES) | solubility in water [1] | critical micelle concentration (CMC) [2, 5] | plateau value of minimum surface tension [2, 5] | critical micelle concentration (CMC) ([2]; in water, 23° C.) | plateau value of minimum surface tension ([2]; in water, 23° C.) | contact angle (CA) ([3]; substrate Nylon) | contact angle (CA) [3, 6] | contact angle (CA) ([3]; substrate Polyethylene) | contact angle (CA) ([3]; substrate Polypropylene) | contact angle (CA) ([3]; substrate Teflon) | time to fully saturate the interface (dynamic surface tension) ([4]; freshly created air-water interface) | time to fully saturate a freshly created air-water interface (dynamic surface tension) [4] | contact angle (CA) ([3]; substrate Polyethylene-HD) |
| --- | --- | --- | --- | --- | --- | --- | --- | --- | --- | --- | --- | --- | --- |
| CN(C)CCCCCC(=O)NCCC[Si](O[Si](C)(C)C)(O[Si](C)(C)C)O[Si](C)(C)C [Surfactant 1, 6-(dimethylamino)-N-(3-(1,1,1,5,5,5-hexamethyl-3-((trimethylsilyl)oxy)trisiloxan-3-yl)propyl)hexanamide] | slightly soluble | – | – | – | – | – | – | – | – | – | – | – | – |
| CN(C)CCCCCC(=O)NCCC[Si](O[Si](C)(C)C)(O[Si](C)(C)C)O[Si](C)(C)C [Surfactant 2, 6-((3-(1,1,1,5,5,5-hexamethyl-3-((trimethylsilyl)oxy)trisiloxan-3-yl)propyl)amino)-N,N-dimethyl-6-oxohexan-1-aminium chloride] | – | about 2 mmol | about 23 mN/m | – | – | – | – | – | – | – | – | – | – |
| C[N+](C)(C)CCCCCC(=O)NCCC[Si](O[Si](C)(C)C)(O[Si](C)(C)C)O[Si](C)(C)C [Surfactant 3, 6-((3-(1,1,1,5,5,5-hexamethyl-3-((trimethylsilyl)oxy)trisiloxan-3-yl)propyl)amino)-N,N,N-trimethyl-6-oxohexan-1-aminium iodide] | – | – | – | about 1.6 mmol | around 20 mN/m | 0 ° | 0 ° | 0 ° | 0 ° | 10.5 ° | less than 500 ms | – | – |
| C[N+](C)([O-])CCCCCC(=O)NCCC[Si](O[Si](C)(C)C)(O[Si](C)(C)C)O[Si](C)(C)C [Surfactant 4, 6-((3-(1,1,1,5,5,5-hexamethyl-3-((trimethylsilyl)oxy)trisiloxan-3-yl)propyl)amino)-N,N-dimethyl-6-oxohexan-1-amine oxide] | – | – | – | about 0.49 mmol | about 20 mN/m | 0 ° | 0 ° | 0 ° | 0 ° | 10.6 ° | – | one second or less | – |
| C[N+](C)(CCCCCC(=O)NCCC[Si](O[Si](C)(C)C)(O[Si](C)(C)C)O[Si](C)(C)C)CCCCS(=O)(=O)[O-] [Surfactant 5, 4-((6-((3-(1,1,1,5,5,5-hexamethyl-3-((trimethylsilyl)oxy)trisiloxan-3-yl)propyl)amino)-6-oxohexyl)dimethylammonio)butane-1-sulfonate] | – | – | – | about 0.39 mmol | about 21 mN/m | 0 ° | 0 ° | 0 ° | 0 ° | 10.2 ° | – | one second or less | 0 ° |
